Experiments:
OCC1-SEAP tumor = test: Nude mouse tumor model, intraperitoneal OCC1-SEAP cells, plasma SEAP (Example II); assay type: in vivo; conditions: carboplatin 60 mg/kg every other day for 5 days
Source text: Athymic nude mice (NCR Nu/Nu) were either purchased from Taconic (Germantown, N.Y.) or bred in-house at Washington State University, Pullman, Wash. The OCC1-SEAP cells were collected in Hank's balanced salt solution and counted prior to injection. Treatments were initiated 7 to 10 days following an intraperitoneal inoculation of mice with 1×10^7 OCC1-SEAP cells, as described above, in Example I.
Stock solutions of carboplatin (paraplatin; Bristol-Myers Squibb, Princeton, N.J.) and TPL (Calbiochem, CA), were prepared in sterile filtered PBS and DMSO, respectively. Animals received intraperitoneal injections of either vehicle controlled (PBS containing 4% DMSO), or carboplatin (60 mg/kg), alone, or in combination with TPL (0-1.0 mg/kg), every other day for 5 days. Alternatively, TPL (0.15 mg/kg) was injected every day for 10 days. For these experiments, carboplatin was administered under the same schedule of every other day for 5 days. Some mice were also treated with 40 mg/kg of LY294002 every other day for 5 days, with an intraperitoneal injection in the presence of TPL and carboplatin. Blood samples were collected into capillary tubes from saphenous vein lancings at regular intervals during and following treatments. The capillary tubes were centrifuged and the plasma samples were frozen at −20° C., until the time of SEAP assay. The Washington State University Animal Care and Use Committee approved all procedures.
Blood plasma and cell culture medium samples were assayed for SEAP activity using the Great EscAPe SEAP fluorescence detection kit (Clontech Laboratories, Palo Alto, Calif.), as described above in Example I. Blood plasma samples were diluted 1:100, prior to the assay to bring values within the linear range of the standard curve. The intraassay and interassay coefficients of variation were 2.5% and 18.8%, respectively. In the case of the experiments in which mice were treated with a combination of TPL, LY294002 and carboplatin, there was some variation in the extent of tumor growth in the control mice. In order to better compare response to treatment across experiments, the SEAP assay data between experiments were normalized by dividing each data point by the overall mean of all SEAP measurements from that experiment and up, through day 18. The normalized data then reflect the relative tumor burden of each mouse, compared to others in the experimental group, and can be combined across experiments.

OCC1-SEAP-12 cells = test: Growth assay, [3H] thymidine incorporation (Example III); assay type: cell-based, human; conditions: 18h treatment
Description: Cell proliferation was analyzed by determining the amount of [^3H] thymidine incorporation Into newly synthesized DNA. The OCC1-SEAP-12 cells were plated in 24 well plates in Ham's F-12 medium plus 10% BCS and allowed to reach 50 to 70% confluence. Following a 48 hr serum starvation, the culture medium was changed to Dulbecco's Modified Eagle Medium (DMEM) plus 0.1% BSA and 0.1% BCS containing either vehicle control or carboplatin (0-100 μg/ml) alone, or in combination with LY294002 (0-20 μM). Treatments were removed after 18h and cells were incubated for 4 hr in medium containing 5 μCi/ml of [^3H] thymidine. Medium was removed and cells were disrupted by sonication in phosphate buffered saline (PBS). An aliquot of the sonicated solution of PBS was loaded onto a DEAE filtration plate (Millipore, Bedford, Mass.), and individual filters with bound DNA were collected for scintillation counting. Data was normalized to total DNA per well and was determined by a SYBR green fluorescent assay (Nilsson E E, Westfall S D, McDonald C, Ligon T, Sadler-Riggleman I, Skinner M K. An in vivo mouse reporter gene (human secreted alkaline phosphatase) model to monitor ovarian tumor growth and response to therapeutics. Cancer Chemother Pharmacol 2002; 49(2):93-100).

caspase 3 = test: Western blot for active caspase 3 (Example III); assay type: cell-based, human; conditions: LY294002 10 μM, carboplatin 50 μg/ml
Description: The OCC1-SEAP-12 cells were grown to 80% confluence. Cultures were incubated in DMEM plus 0.1% bovine serum albumin (BSA) and 0.1% BCS to which either vehicle control, carboplatin (0-50 μg/ml), LY294002 (0-20 μM) or combinations of these treatments. Following 24, 48 or 72 hr cells were lysed with sample buffer (62.5 mM Tris-HCl, pH 6.8, 2% SDS, 5% glycerol, […], 0.5% β-mercaptoethanol). Total cell lysates were subjected to SDS polyacrylamide gel electrophoresis 9 page) and transferred to PVDF membranes (Millipore, Bedford, Mass.). Membranes were immunoblotted with antibodies to both the phosphorylated and non-phosphorylated forms of […] (Cell Signaling Technology, Beverly, Mass.), or alternatively, with antibodies to cleaved and full length caspase-3 (Cell Signaling Technology, Beverly, Mass.).

[1] = tested on: OCC1-SEAP intraperitoneal tumors; test: Nude mouse intraperitoneal OCC1-SEAP tumor model, plasma SEAP (Example I); assay type: in vivo, athymic nude mice; conditions: established tumors; carboplatin 60 mg/kg three times over 4 days
Description: Athymic nude mice (Nu/Nu; Charles River Laboratories, Wilmington, Mass.) weighing about 25 g were used for in vivo studies.
Three mice were injected intraperitoneally with 1×10^7 OCC1-SEAP-12 cells. The experimental treatments began after 1 week. […] Alternatively, four mice with well-developed tumors (2-4 weeks after injection) were treated with a high dose of carboplatin (60 mg/kg) three times over a period of 4 days. After death all visible intraperitoneal tumors were dissected out and weighed.
Blood samples were collected from saphenous vein lancings three times per week into heparinized capillary tubes. The capillary tubes were centrifuged and the plasma samples were frozen at −20° C. until the time of SEAP assay. Blood samples were taken for SEAP assay from the mice within 24 hours of death 2-3 weeks after intraperitoneal injection of OCC1-SEAP cells.
Blood plasma and cell culture medium samples were assayed for SEAP activity using the Great EscAPe SEAP fluorescence detection kit (Clontech Laboratories, Palo Alto, Calif.). SEAP is secreted at a constant rate by transfected tumor cells and distributed throughout the body or into the culture medium. SEAP is heat stable, so any endogenous alkaline phosphatase activity in blood plasma is destroyed by heat treatment of the samples (65° C. for 30 minutes) during the assay. The SEAP enzyme in each sample acts on the substrate 4-methylumbelliferyl phosphate during a 1 hour incubation at room temperature to produce a fluorescent product with excitation and emission peaks at 360 and 449 nm, respectively. A fluorimeter is then used to measure SEAP activity. The intra-assay and inter-assay coefficients of variation were 2.5% and 18.8%, respectively. Blood plasma samples were diluted 1:100 prior to the assay to bring values within the linear range of the standard curve.

`N.N.O=C([O-])C1(C(=O)[O-])CCC1.[Pt+2]` [carboplatin] was tested, and the “tumor burden vs vehicle control (FIG. 11)” value (OCC1-SEAP tumor; high dose, short duration: TPL 0.5 mg/kg) was “no significant difference”, the “tumor burden as measured by SEAP levels vs vehicle control (FIG. 12)” value (OCC1-SEAP tumor; low dose, long duration: TPL 0.15 mg/kg every day for 10 days) was “no significant difference” and the “block of basal DNA synthesis” value (OCC1-SEAP-12 cells; 20 μg/ml carboplatin) was 51%. For the same compound, the “block of basal DNA synthesis” value (OCC1-SEAP-12 cells; 50 μg/ml carboplatin) was 59.5%, the “time at which active 17 kDa caspase 3 appears” value (caspase 3) was 48 h and the “tumor burden by plasma SEAP levels” value [1] was “transiently decreased the tumor burden”.

Reference: patent publication US20110045102A1, “Cancer chemotherapy compositions comprising PI3K pathway modulators and triptolide” (priority 2005, published 2011)
